# Reference: patent US11345681B1, “Inhibitors of fibroblast growth factor receptor kinases” (Kinnate Biopharma Inc., priority 2020, dated 2022)
# Molecular target: Wild type FGFR2 (Homo sapiens (Human), UniProt P21802)
# Assay: FGFR2 kinase assay (fluorescence-based microfluidic mobility shift assay)
# Format: biochemical
# Conditions: wild type FGFR2 0.06 nM, 100 μM ATP, 80 minutes at room temperature; class symbols
# Chain of Wild type FGFR2 (P21802 22-821): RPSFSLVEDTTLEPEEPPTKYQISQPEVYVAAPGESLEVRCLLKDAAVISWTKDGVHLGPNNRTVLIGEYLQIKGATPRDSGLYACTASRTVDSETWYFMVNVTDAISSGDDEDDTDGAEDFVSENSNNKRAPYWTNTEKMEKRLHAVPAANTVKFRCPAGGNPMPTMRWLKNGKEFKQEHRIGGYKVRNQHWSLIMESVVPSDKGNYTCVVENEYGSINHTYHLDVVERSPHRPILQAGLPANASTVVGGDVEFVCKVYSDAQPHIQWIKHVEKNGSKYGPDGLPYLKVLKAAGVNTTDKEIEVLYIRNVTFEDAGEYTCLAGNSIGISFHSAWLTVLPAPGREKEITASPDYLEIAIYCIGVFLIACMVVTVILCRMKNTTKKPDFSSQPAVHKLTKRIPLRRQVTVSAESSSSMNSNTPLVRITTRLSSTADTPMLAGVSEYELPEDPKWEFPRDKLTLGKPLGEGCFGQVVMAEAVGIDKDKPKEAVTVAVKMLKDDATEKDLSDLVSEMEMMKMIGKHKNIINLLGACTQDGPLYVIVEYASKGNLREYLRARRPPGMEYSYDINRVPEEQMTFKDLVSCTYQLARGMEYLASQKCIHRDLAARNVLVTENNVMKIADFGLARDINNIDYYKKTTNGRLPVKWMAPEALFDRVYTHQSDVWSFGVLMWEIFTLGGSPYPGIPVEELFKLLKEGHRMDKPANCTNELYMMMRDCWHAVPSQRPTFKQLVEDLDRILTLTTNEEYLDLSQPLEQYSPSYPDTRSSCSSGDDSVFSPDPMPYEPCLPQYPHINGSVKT
row,Compound,IC50
1,"CNc1c(C(N)=O)c(C#Cc2cc3nc(C)n(C4CC4)c3cc2F)nn1[C@H]1C[C@H](COC)N(C(=O)C#CC(C)(C)O)C1 [Example 227, 3-[2-(1-Cyclopropyl-6-fluoro-2-methyl-1,3-benzodiazol-5-yl)ethynyl]-1-[(3S,5R)-1-(4-hydroxy-4-methylpent-2-ynoyl)-5-(methoxymethyl)pyrrolidin-3-yl]-5 (methylamino)pyrazole-4-carboxamide]",≤ 100 nM
2,"CNc1c(C(N)=O)c(C#Cc2cc3nc(C)n(C4CC4)c3cc2Cl)nn1[C@H]1C[C@H](COC)N(C(=O)C#CC(C)(C)O)C1 [Example 228, 3-[2-(6-Chloro-1-cyclopropyl-2-methyl-1,3-benzodiazol-5-yl)ethynyl]-1-[(3S,5R)-1-(4-hydroxy-4-methylpent-2-ynoyl)-5-(methoxymethyl)pyrrolidin-3-yl]-5-(methylamino)pyrazole-4-carboxamide]",≤ 100 nM
3,"C=CC(=O)N1C[C@@H](n2nc(C#Cc3cc4ncn(C5CCC5)c4cc3Cl)c(C(N)=O)c2NC)C[C@@H]1COC [Example 232, 3-[2-(6-chloro-1-cyclobutyl-1,3-benzodiazol-5-yl)ethynyl]-1-[(3S,5R)-5-(methoxymethyl)-1-(prop-2-enoyl)pyrrolidin-3-yl]-5-(methylamino)pyrazole-4-carboxamide]",≤ 100 nM
4,"C=CC(=O)N1C[C@@H](n2nc(C#Cc3cc4ncn(C5CC5)c4cc3F)c(C(N)=O)c2N)C[C@@H]1[C@@H](C)O [Example 240, 5-Amino-3-[2-(1-cyclopropyl-6-fluoro-1,3-benzodiazol-5-yl)ethynyl]-1-[(3S,5R)-5-[(1R)-1-hydroxyethyl]-1-(prop-2-enoyl)pyrrolidin-3-yl]pyrazole-4-carboxamide]",≤ 100 nM
5,"C=CC(=O)N1C[C@@H](n2nc(C#Cc3cc4ncn(C5CC5)c4cc3F)c(C(N)=O)c2N)C[C@@H]1[C@H](C)O [Example 241, 5-Amino-3-[2-(1-cyclopropyl-6-fluoro-1,3-benzodiazol-5-yl)ethynyl]-1-[(3S,5R)-5-[(1S)-1-hydroxyethyl]-1-(prop-2-enoyl)pyrrolidin-3-yl]pyrazole-4-carboxamide]",≤ 100 nM
6,"C=CC(=O)N1C[C@@H](n2nc(C#Cc3cc4nc(C)n(C5CC5)c4cc3Cl)c(C(N)=O)c2N)C[C@@H]1[C@@H](C)O [Example 244, 1-((3S,5R)-1-Acryloyl-5-((R)-1-hydroxyethyl)pyrrolidin-3-yl)-5-amino-3-((6-chloro-1-cyclopropyl-2-methyl-1H-benzo[d]imidazol-5-yl)ethynyl)-1H-pyrazole-4-carboxamide]",≤ 100 nM
7,"C=CC(=O)N1C[C@@H](n2nc(C#Cc3cc4nc(C)n(C5CC5)c4cc3Cl)c(C(N)=O)c2N)C[C@@H]1[C@H](C)O [Example 245, 1-((3S,5R)-1-Acryloyl-5-((S)-1-hydroxyethyl)pyrrolidin-3-yl)-5-amino-3-((6-chloro-1-cyclopropyl-2-methyl-1H-benzo[d]imidazol-5-yl)ethynyl)-1H-pyrazole-4-carboxamide]",≤ 100 nM
8,C=CC(=O)N1C[C@@H](n2nc(C#Cc3cc4nc(C)n(C5CC5)c4cc3F)c(C(N)=O)c2N)C[C@@H]1[C@@H](C)O [Example 246],≤ 100 nM
9,"C=CC(=O)N1C[C@@H](n2nc(C#Cc3cc4nc(C)n(C5CC5)c4cc3F)c(C(N)=O)c2N)C[C@@H]1[C@H](C)O [Example 247, 5-Amino-3-[2-(1-cyclopropyl-6-fluoro-2-methyl-1,3-benzodiazol-5-yl)ethynyl]-1-[(3S,5R)-5-[(1S)-1-hydroxyethyl]-1-(prop-2-enoyl)pyrrolidin-3-yl]pyrazole-4-carboxamide]",≤ 100 nM
10,C=CC(=O)N1C[C@@H](n2nc(C#Cc3cc4ncn(C5COC5)c4cc3Cl)c(C(N)=O)c2NC)C[C@@H]1COC [Example 248],≤ 100 nM
11,"C=CC(=O)N1C[C@@H](n2nc(C#Cc3c(F)cc4c(ncn4C4CC4)c3F)c(C(N)=O)c2NCCO)C[C@@H]1COC [Example 251, 3-[2-(1-Cyclopropyl-4,6-difluoro-1,3-benzodiazol-5-yl)ethynyl]-5-[(2-hydroxyethyl)amino]-1-[(3S,5R)-5-(methoxymethyl)-1-(prop-2-enoyl)pyrrolidin-3-yl]pyrazole-4-carboxamide]",≤ 100 nM
12,"C=CC(=O)N1C[C@@H](n2nc(C#Cc3cc4c(cc3F)OCO4)c(C(N)=O)c2NC)C[C@@H]1COC [Example 254, 3-[2-(6-Fluoro-2H-1,3-benzodioxol-5-yl)ethynyl]-1-[(3S,5R)-5-(methoxymethyl)-1-(prop-2-enoyl)pyrrolidin-3-yl]-5-(methylamino)pyrazole-4-carboxamide]",≤ 100 nM
13,"C=CC(=O)N1C[C@@H](n2nc(C#Cc3cc4ncc(C)n4cc3F)c(C(N)=O)c2NC)C[C@@H]1COC [Example 257, 1-((3S,5R)-1-Acryloyl-5-(methoxymethyl)pyrrolidin-3-yl)-3-((6-fluoro-3 methylimidazo[1,2-a]pyridin-7-yl)ethynyl)-5-(methylamino)-1H-pyrazole-4-carboxamide]",≤ 100 nM
14,"C=CC(=O)N1C[C@@H](n2nc(C#Cc3cc4nc5n(c4cc3F)CCC5)c(C(N)=O)c2NC)C[C@@H]1COC [Example 260, 1-((3S,5R)-1-acryloyl-5-(methoxymethyl)pyrrolidin-3-yl)-3-((7-fluoro-2,3-dihydro-1H-benzo[d]pyrrolo[1,2-a]imidazol-6-yl)ethynyl)-5-(methylamino)-1H-pyrazole-4-carboxamide]",≤ 100 nM
15,"C=CC(=O)N1C[C@@H](n2nc(C#Cc3cc4ncc(C5CC5)n4cc3Cl)c(C(N)=O)c2NC)C[C@@H]1COC [Example 261, 3-(2-{6-Chloro-3-cyclopropylimidazo[1,2-a]pyridin-7-yl}ethynyl)-1-[(3S,5R)-5-(methoxymethyl)-1-(prop-2-enoyl)pyrrolidin-3-yl]-5-(methylamino)pyrazole-4-carboxamide]",≤ 100 nM
16,"C=CC(=O)N1C[C@@H](n2nc(C#Cc3cc4ncc(C#N)n4cc3F)c(C(N)=O)c2NC)C[C@@H]1COC [Example 262, 3-(2-{3-Cyano-6-fluoroimidazo[1,2-a]pyridin-7-yl}ethynyl)-1-[(3S,5R)-5-(methoxymethyl)-1-(prop-2-enoyl)pyrrolidin-3-yl]-5-(methylamino)pyrazole-4-carboxamide]",≤ 100 nM
17,"C=CC(=O)N1C[C@@H](n2nc(C#Cc3ccc4c(C#N)cnn4c3)c(C(N)=O)c2NC)C[C@@H]1COC [Example 263, 3-(2-{3-Cyanopyrazolo[1,5-a]pyridin-6-yl}ethynyl)-1-[(3S,5R)-5-(methoxymethyl)-1-(prop-2-enoyl)pyrrolidin-3-yl]-5-(methylamino)pyrazole-4-carboxamide]",≤ 100 nM

# More lines, now with the values ahead:
row,IC50,Compound
1,≤ 100 nM,"C=CC(=O)N1C[C@@H](n2nc(C#Cc3cc4nc(C)n(C5CCC5)c4cc3Cl)c(C(N)=O)c2NC)C[C@@H]1COC [Example 233, 1-((3S,5R)-1-Acryloyl-5-(methoxymethyl)pyrrolidin-3-yl)-3-((6-chloro-1-cyclobutyl-2-methyl-1H-benzo[d]imidazol-5-yl)ethynyl)-5-(methylamino)-1H-pyrazole-4-carboxamide]"
2,≤ 100 nM,"C=CC(=O)N1C[C@@H](n2nc(C#Cc3cc4ncn(C5COC5)c4cc3F)c(C(N)=O)c2NC)C[C@@H]1COC [Example 234, 3-{2-[6-Fluoro-1-(oxetan-3-yl)-1,3-benzodiazol-5-yl]ethynyl}-1-[(3S,5R)-5-(methoxymethyl)-1-(prop-2-enoyl)pyrrolidin-3-yl]-5-(methylamino)pyrazole-4-carboxamide]"
3,≤ 100 nM,"C=CC(=O)N1C[C@@H](n2nc(C#Cc3cc4ncc(C)cc4cc3F)c(C(N)=O)c2NC)C[C@@H]1COC [Example 236, 3-[2-(6-fluoro-3-methylquinolin-7-yl)ethynyl]-1-[(3S,5R)-5-(methoxymethyl)-1-(prop-2-enoyl)pyrrolidin-3-yl]-5-(methylamino)pyrazole-4-carboxamide]"
4,≤ 100 nM,"C=CC(=O)N1C[C@@H](n2nc(C#Cc3cc4nc(C)n(C5COC5)c4cc3Cl)c(C(N)=O)c2NC)C[C@@H]1COC [Example 249, 3-{2-[6-chloro-2-methyl-1-(oxetan-3-yl)-1,3-benzodiazol-5-yl]ethynyl}-1-[(3S,5R)-5-(methoxymethyl)-1-(prop-2-enoyl)pyrrolidin-3-yl]-5-(methylamino)pyrazole-4-carboxamide]"
5,≤ 100 nM,"C=CC(=O)N1C[C@@H](n2nc(C#Cc3cc4nc(C)n(C5CC5)c4cc3F)c(C(N)=O)c2NCCO)C[C@@H]1COC [Example 252, 3-[2-(1-Cyclopropyl-6-fluoro-2-methyl-1,3-benzodiazol-5-yl)ethynyl]-5-[(2-hydroxyethyl)amino]-1-[(3S,5R)-5-(methoxymethyl)-1-(prop-2-enoyl)pyrrolidin-3-yl]pyrazole-4-carboxamide]"
6,≤ 100 nM,"C=CC(=O)N1C[C@@H](n2nc(C#Cc3cc4nc(C)n(C5CC5)c4cc3Cl)c(C(N)=O)c2NCCO)C[C@@H]1COC [Example 253, 1-((3S,5R)-1-Acryloyl-5-(methoxymethyl)pyrrolidin-3-yl)-3-((6-chloro-1-cyclopropyl-2-methyl-1H-benzo[d]imidazol-5-yl)ethynyl)-5-((2-hydroxyethyl)amino)-1H-pyrazole-4-carboxamide]"
7,≤ 100 nM,"C=CC(=O)N1C[C@@H](n2nc(C#Cc3cc4ncc(Cl)cc4cc3F)c(C(N)=O)c2NC)C[C@@H]1COC [Example 256, 3-[2-(3-Chloro-6-fluoroquinolin-7-yl)ethynyl]-1-[(3S,5R)-5-(methoxymethyl)-1-(prop-2-enoyl)pyrrolidin-3-yl]-5-(methylamino)pyrazole-4-carboxamide]"
8,≤ 100 nM,"C=CC(=O)N1C[C@@H](n2nc(C#Cc3cc4ncc(C)cc4cc3Cl)c(C(N)=O)c2NC)C[C@@H]1COC [Example 258, 3-[2-(6-Chloro-3-methylquinolin-7-yl)ethynyl]-1-[(3S,5R)-5-(methoxymethyl)-1-(prop-2-enoyl)pyrrolidin-3-yl]-5-(methylamino)pyrazole-4-carboxamide]"
9,≤ 100 nM,"C=CC(=O)N1C[C@@H](n2nc(C#Cc3cc4ncc(F)cc4cc3F)c(C(N)=O)c2NC)C[C@@H]1COC [Example 264, 3-[2-(3,6-Difluoroquinolin-7-yl)ethynyl]-1-[(3S,5R)-5-(methoxymethyl)-1-(prop-2-enoyl)pyrrolidin-3-yl]-5-(methylamino)pyrazole-4-carboxamide]"
